ChEMBL document CHEMBL3885861, “Open TG-GATES”

Organism: Rattus norvegicus
Assay: Open TG-GATES - Regimen: Daily Repeat
Type: toxicity, organism-based, Sprague-Dawley
Set-up: regimen Daily Repeat, gender Male, age 6 weeks
Conditions: in vivo, po, 100 mg/kg, route gavage, dose level Low; for APTT / Bas / Eos / Fbg / Hb / Ht / Lym / MCH / MCHC / MCV / Mono / Neu / PT / Plat / RBC / Ret / WBC: tissue Blood; for KIDNEY_L / KIDNEY_R / KIDNEY_TOTAL: tissue Kidney; for LIVER: tissue Liver; for A/G / ALP / ALT / AST / BUN / CRE / Ca / Cl / DBIL / GLC / IP / K / LDH / Na / PL / RALB / TBIL / TC / TG / TP / gamma-GTP: tissue Plasma

Structure (SMILES): CC(S)C(=O)NCC(=O)O (configuration not stated) [TIOPRONIN]
- TERMINAL_BW (72 h, time 3 day): 228.4 g
- APTT (72 h, time 3 day): 22 s
- Bas (72 h, time 3 day): 0%
- Eos (72 h, time 3 day): 1%
- Fbg (72 h, time 3 day): 299.8 mg/dL
- Hb (72 h, time 3 day): 13 g/dL
- Ht (72 h, time 3 day): 39.1%
- Lym (72 h, time 3 day): 77.8%
- MCH (72 h, time 3 day): 19.9 pg
- MCHC (72 h, time 3 day): 33.2%
- MCV (72 h, time 3 day): 60.1 fL
- Mono (72 h, time 3 day): 2.8%
- Neu (72 h, time 3 day): 17.8%
- PT (72 h, time 3 day): 15.6 s
- Plat (72 h, time 3 day): 120.9 x10_4/uL
- RBC (72 h, time 3 day): 652 x10_4/ul
- Ret (72 h, time 3 day): 6.7%
- WBC (72 h, time 3 day): 105.6 x10_2/uL
- KIDNEY_L (72 h, time 3 day): 1 g
- KIDNEY_R (72 h, time 3 day): 1 g
- KIDNEY_TOTAL (72 h, time 3 day): 2 g
- LIVER (72 h, time 3 day): 10.8 g
- A/G (72 h, time 3 day): 1.2
- ALP (72 h, time 3 day): 1580 IU/L
- ALT (72 h, time 3 day): 43.6 IU/L
- AST (72 h, time 3 day): 73.6 IU/L
- BUN (72 h, time 3 day): 17 mg/dL
- CRE (72 h, time 3 day): 0.2 mg/dL
- Ca (72 h, time 3 day): 10.6 mg/dL
- Cl (72 h, time 3 day): 106.4 meq/L
- DBIL (72 h, time 3 day): 0 mg/dL
- GLC (72 h, time 3 day): 189.4 mg/dL
- IP (72 h, time 3 day): 7.4 mg/dL
- K (72 h, time 3 day): 4.4 meq/L
- LDH (72 h, time 3 day): 165.2 IU/L
- Na (72 h, time 3 day): 140.8 meq/L
- PL (72 h, time 3 day): 139.8 mg/dL
- RALB (72 h, time 3 day): 3.1 g/dL
- TBIL (72 h, time 3 day): 0.008 mg/dL
- TC (72 h, time 3 day): 76.6 mg/dL
- TG (72 h, time 3 day): 107.2 mg/dL
- TP (72 h, time 3 day): 5.6 g/dL
- gamma-GTP (72 h, time 3 day): 1.6 IU/L
- TERMINAL_BW ([…], time 7 day): 255.1 g
- TERMINAL_BW ([…], time 14 day): 321.9 g
- TERMINAL_BW ([…], time 28 day): 376.7 g
- APTT ([…], time 7 day): 22.4 s
- Bas ([…], time 7 day): 0%
- Eos ([…], time 7 day): 0.8%
- Fbg ([…], time 7 day): 305.8 mg/dL
- Hb ([…], time 7 day): 13.5 g/dL
- Ht ([…], time 7 day): 39.7%
- Lym ([…], time 7 day): 79.2%
- MCH ([…], time 7 day): 20.9 pg
- MCHC ([…], time 7 day): 34.1%
- MCV ([…], time 7 day): 61.4 fL
- Mono ([…], time 7 day): 2.4%
- Neu ([…], time 7 day): 16.4%
- PT ([…], time 7 day): 15.8 s
- Plat ([…], time 7 day): 125.6 x10_4/uL
- RBC ([…], time 7 day): 647 x10_4/ul
- Ret ([…], time 7 day): 6.1%
- WBC ([…], time 7 day): 109.7 x10_2/uL
- APTT ([…], time 14 day): 24.5 s
- Bas ([…], time 14 day): 0%
- Eos ([…], time 14 day): 1%
- Fbg ([…], time 14 day): 297 mg/dL
- Hb ([…], time 14 day): 14.3 g/dL
- Ht ([…], time 14 day): 41.1%
- Lym ([…], time 14 day): 80.2%
- MCH ([…], time 14 day): 20.8 pg
- MCHC ([…], time 14 day): 34.8%
- MCV ([…], time 14 day): 59.9 fL
- Mono ([…], time 14 day): 2.4%
- Neu ([…], time 14 day): 15.4%
- PT ([…], time 14 day): 15.6 s
- Plat ([…], time 14 day): 116.6 x10_4/uL
- RBC ([…], time 14 day): 686.2 x10_4/ul
- Ret ([…], time 14 day): 5.6%
- WBC ([…], time 14 day): 147.7 x10_2/uL
- APTT ([…], time 28 day): 25.2 s
- Bas ([…], time 28 day): 0%
- Eos ([…], time 28 day): 1.2%
- Fbg ([…], time 28 day): 325.8 mg/dL
- Hb ([…], time 28 day): 15.2 g/dL
- Ht ([…], time 28 day): 43.1%
- Lym ([…], time 28 day): 80.6%
- MCH ([…], time 28 day): 19.6 pg
- MCHC ([…], time 28 day): 35.2%
- MCV ([…], time 28 day): 55.6 fL
- Mono ([…], time 28 day): 2.6%
- Neu ([…], time 28 day): 14.6%
- PT ([…], time 28 day): 15.9 s
- Plat ([…], time 28 day): 94 x10_4/uL
- RBC ([…], time 28 day): 775.4 x10_4/ul
- Ret ([…], time 28 day): 2.8%
- WBC ([…], time 28 day): 122.4 x10_2/uL
- KIDNEY_L ([…], time 7 day): 1.1 g
- KIDNEY_R ([…], time 7 day): 1.1 g
- KIDNEY_TOTAL ([…], time 7 day): 2.2 g
- KIDNEY_L ([…], time 14 day): 1.2 g
- KIDNEY_R ([…], time 14 day): 1.3 g
- KIDNEY_TOTAL ([…], time 14 day): 2.5 g
- KIDNEY_L ([…], time 28 day): 1.3 g
- KIDNEY_R ([…], time 28 day): 1.4 g
- KIDNEY_TOTAL ([…], time 28 day): 2.7 g
- LIVER ([…], time 7 day): 11.2 g
- LIVER ([…], time 14 day): 14.1 g
- LIVER ([…], time 28 day): 15.3 g
- A/G ([…], time 7 day): 1.1
- ALP ([…], time 7 day): 1665.2 IU/L
- ALT ([…], time 7 day): 37.2 IU/L
- AST ([…], time 7 day): 66.8 IU/L
- BUN ([…], time 7 day): 16.8 mg/dL
- CRE ([…], time 7 day): 0.1 mg/dL
- Ca ([…], time 7 day): 10.6 mg/dL
- Cl ([…], time 7 day): 107.4 meq/L
- DBIL ([…], time 7 day): 0 mg/dL
- GLC ([…], time 7 day): 189.8 mg/dL
- IP ([…], time 7 day): 7.3 mg/dL
- K ([…], time 7 day): 4.2 meq/L
- LDH ([…], time 7 day): 146.2 IU/L
- Na ([…], time 7 day): 141.8 meq/L
- PL ([…], time 7 day): 139.4 mg/dL
- RALB ([…], time 7 day): 3 g/dL
- TBIL ([…], time 7 day): 0.002 mg/dL
- TC ([…], time 7 day): 70.6 mg/dL
- TG ([…], time 7 day): 103.2 mg/dL
- TP ([…], time 7 day): 5.6 g/dL
- gamma-GTP ([…], time 7 day): 2.2 IU/L
- A/G ([…], time 14 day): 1.2
- ALP ([…], time 14 day): 1412.8 IU/L
- ALT ([…], time 14 day): 37.4 IU/L
- AST ([…], time 14 day): 66.6 IU/L
- BUN ([…], time 14 day): 18.2 mg/dL
- CRE ([…], time 14 day): 0.2 mg/dL
- Ca ([…], time 14 day): 10.4 mg/dL
- Cl ([…], time 14 day): 107.4 meq/L
- DBIL ([…], time 14 day): 0 mg/dL
- GLC ([…], time 14 day): 199 mg/dL
- IP ([…], time 14 day): 6.4 mg/dL
- K ([…], time 14 day): 4.3 meq/L
- LDH ([…], time 14 day): 135.6 IU/L
- Na ([…], time 14 day): 141.6 meq/L
- PL ([…], time 14 day): 134 mg/dL
- RALB ([…], time 14 day): 3.1 g/dL
- TBIL ([…], time 14 day): 0.006 mg/dL
- TC ([…], time 14 day): 65.4 mg/dL
- TG ([…], time 14 day): 121 mg/dL
- TP ([…], time 14 day): 5.7 g/dL
- gamma-GTP ([…], time 14 day): 2 IU/L
- A/G ([…], time 28 day): 1.2
- ALP ([…], time 28 day): 1019.8 IU/L
- ALT ([…], time 28 day): 34.6 IU/L
- AST ([…], time 28 day): 58.2 IU/L
- BUN ([…], time 28 day): 19.2 mg/dL
- CRE ([…], time 28 day): 0.2 mg/dL
- Ca ([…], time 28 day): 10.8 mg/dL
- Cl ([…], time 28 day): 106.8 meq/L
- DBIL ([…], time 28 day): 0 mg/dL
- GLC ([…], time 28 day): 191 mg/dL
- IP ([…], time 28 day): 6.2 mg/dL
- K ([…], time 28 day): 4 meq/L
- LDH ([…], time 28 day): 115.8 IU/L
- Na ([…], time 28 day): 142.8 meq/L
- PL ([…], time 28 day): 142.4 mg/dL
- RALB ([…], time 28 day): 3.2 g/dL
- TBIL ([…], time 28 day): 0.008 mg/dL
- TC ([…], time 28 day): 77.4 mg/dL
- TG ([…], time 28 day): 136.4 mg/dL
- TP ([…], time 28 day): 5.9 g/dL
- gamma-GTP ([…], time 28 day): 1.6 IU/L
